For one data set, the target named is T1, HPH 2 (Homo sapiens, UniProt Q9GZT9, DEL76-177).
T1 construct: MBP (N); made in house; host or cells: E. coli BL21-CodonPlus-RIL
The experiment in a line: Activity of purified recombinant HPH 2 on HIF-1a peptide substrate. The settings on record: additive added (CoCl2 in excess). Format: biochemical.

The test system of data set [1] is prolyl-4-hydroxylase activity capable of modifying a proline-containing peptide derived from the ODD. As to conditions: cited from earlier work.
A further data set addresses human HIF-1a ODD peptide (Homo sapiens, UniProt Q16665, M561A/M568A). The experiment in a line: [35S]-pVHL pull-down prolyl hydroxylase assay with biotinylated HIF-1a ODD peptide. The class given is biochemical. As to conditions: enzyme in vitro transcribed/translated in rabbit reticulocyte lysate; ascorbate, 2-oxoglutarate, FeSO4 present.

Structures can show the parent of a compound that is named as a salt. Where two headings read alike, the source gives them in different places.

T1 sequence (Q9GZT9 with tags, fused parts or gaps DEL76-177): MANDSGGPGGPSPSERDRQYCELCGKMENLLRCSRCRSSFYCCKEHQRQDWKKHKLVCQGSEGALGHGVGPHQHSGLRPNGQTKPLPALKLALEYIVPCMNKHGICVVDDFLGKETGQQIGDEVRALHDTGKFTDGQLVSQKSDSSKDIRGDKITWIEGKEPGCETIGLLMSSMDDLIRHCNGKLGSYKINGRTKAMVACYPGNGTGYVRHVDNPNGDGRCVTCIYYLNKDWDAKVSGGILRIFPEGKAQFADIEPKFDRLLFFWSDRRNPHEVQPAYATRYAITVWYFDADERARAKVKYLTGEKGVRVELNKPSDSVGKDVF

Regarding `O=S(=O)([O-])[O-].[Fe+2]` [FeSO4], the “effect on activity of the HPH 2 enzyme” value on HPH 2 is reported as “greatly stimulated”.
Take `CC(=O)N(O)CCCCCNC(=O)CCC(=O)N(O)CCCCCNC(=O)CCC(=O)N(O)CCCCCN` [deferoxamine mesylate]: in data set [1] (extracts prepared in the presence of hypoxia mimics), the “prolyl-4-hydroxylase activity in extracts” value is reported as “greatly diminished”.
Take CoCl2: in data set [1], the “prolyl-4-hydroxylase activity in extracts” value is listed as “greatly diminished”.
Turning to “HPH 3: human HPH 1 paralog, Genbank BC001723”, the “prolyl hydroxylase activity (pVHL association with the biotinylated peptide)” value with human HIF-1a ODD peptide is “catalyze the hydroxylation”.

The record behind these values is patent US6566088B1, “Prolyl-4-hydroxylases” (Board of Regents, The University of Texas System, priority 2001, dated 2003).
